Assays:
[1] = target: bovine serum albumin (BSA) (Bos taurus, UniProt P02769); settings: equal concentrations (1000 µg/mL); mean ± SE
[2] = Iron-reducing power (IRP); settings: equal concentrations (1000 µg/mL); mean ± SE, three replicates
[3] = target: acetylcholinesterase (AChE) (Homo sapiens, UniProt P22303); assay: biochemical; settings: same concentration (1000 µg/mL); mean ± SE
[4] = Total antioxidant capacity (TAC), phosphomolybdenum method; settings: equal concentrations (1000 µg/mL); mean ± SE, three replicates
Experimental: (§1) All in vitro biological activities were assessed in the tested compounds at equal concentrations (1000 µg/mL). All assays were carried out in triplicate.
In vitro biological activities
(§2) The total antioxidant capacity (TAC) was determined by analyzing the green phosphate/Mo5+ complex at a wavelength (λ) of 695 nm, following the procedure described by Prieto
(§3) et al. Samples (at each concentration) were mixed with a reagent solution containing 0.3 N sulfuric
(§4) acid, 28 mM sodium phosphate, and 4 mM ammonium molybdate. Methanol (80%) was used in place
(§5) of the sample for the blank. The tubes were sealed and incubated in a boiling water bath for 90
(§6) minutes. After cooling to room temperature, the absorbance was measured at 695 nm against the
(§7) blank. Ascorbic acid was used at the same concentrations as a standard. The antioxidant capacity was
(§8) expressed as mg gallic acid equivalent per gram weight.
(§9) The iron reducing power was determined as µg/mL using the method proposed by Oyaizu
(§10) In brief, 1ml of the tested sample (at each concentration) was combined with 1mL of 200mM
(§11) sodium phosphate buffer (pH 6.6) and 1mL of 1% potassium ferricyanide. The mixture was then
(§12) incubated at 50°C for 20 minutes, followed by the addition of 1mL of trichloroacetic acid (10%). After
(§13) centrifugation at 2000rpm for 10 minutes, the upper layer solution (2.5 mL) was mixed with 2.5 mL of double deionized water and 1mL of fresh ferric chloride (0.1%). The absorbance was measured at
(§14) 700nm against a blank prepared without the sample. Ascorbic acid was used at the same
(§15) concentrations as a standard. A high absorbance at 700nm indicates a higher reducing power in the
(§16) The 1,1-Diphenyl-2-picryl-hydrazyl (DPPH) radical scavenging activities were evaluated using the method described by Rahman et al. An antioxidant substance capable of donating a
(§17) hydrogen atom to a solution containing DPPH- can reduce the stable free radical, causing the solution
(§18) to change color from violet to pale yellow. The remaining DPPH- radical was quantified by
(§19) nm using a spectroscopic method. Two milliliters of a DPPH solution (100 µM) in ethanol were mixed
(§20) with 2 mL of the sample (at each concentration). The reaction mixture for each concentration was
(§21) thoroughly vortexed and then incubated in the dark at room temperature for 30 minutes. The
(§22) absorbance was then measured spectrophotometrically at 518 nm against a blank (ethanol). For the
(§23) control, 2 mL of ethanol was added instead of the sample and run simultaneously with the test.
(§24) Ascorbic acid was used at the same concentrations as a positive control. Percent inhibition of the
(§25) DPPH free radical was calculated. The median inhibitory concentration (IC 50) for each tested
(§26) The procedure for the 2,2'-azinobis-(3-ethylbenzothiazoline-6-sulfonic acid) (ABTS) assay
(§27) potassium persulfate solution (2.4 mM). The working solution was prepared by mixing the two stock
(§28) solutions in equal quantities and allowing them to react at room temperature in a dark place for 14
(§29) hours. The solution was then diluted by mixing 1 mL of ABTS solution with 60 mL of methanol to
(§30) was prepared for each assay. The tested samples (at each concentration) were allowed to react with 1
(§31) mL of the ABTS solution, and the absorbance was taken at 734 nm after 7 minutes using a
(§32) spectrophotometer. The ABTS scavenging capacities of the samples were compared with that of
(§33) ascorbic acid (at the same concentrations).

[5] = DPPH radical-scavenging activity; settings: read-out: DPPH (IC50); mean ± SE, three replicates
[6] = test system: α-glucosidase; assay: α-Glucosidase inhibition (anti-diabetic); format: biochemical; settings: equal concentrations (1000 µg/mL); mean ± SE
[7] = test system: α-amylase; assay: α-Amylase inhibition (anti-diabetic); format: biochemical; settings: equal concentrations (1000 µg/mL); mean ± SE
[8] = test system: proteinase enzyme (trypsin); assay: Proteinase enzyme inhibition (anti-inflammatory); format: biochemical; settings: equal concentrations (1000 µg/mL); mean ± SE
[9] = ABTS radical scavenging assay; settings: equal concentrations (1000 µg/mL); mean ± SE
Experimental: as §1
In vitro biological activities
as §2, §3, §4, §5, §6, §7, §8, §9, §10, §11, §12, §13, §14, §15, §16, §17, §18, §19, §20, §21, §22, §23, §24, §25, §26, §27, §28, §29, §30, §31, §32, §33

Sequence of acetylcholinesterase (AChE) (P22303 32-614, species assumed): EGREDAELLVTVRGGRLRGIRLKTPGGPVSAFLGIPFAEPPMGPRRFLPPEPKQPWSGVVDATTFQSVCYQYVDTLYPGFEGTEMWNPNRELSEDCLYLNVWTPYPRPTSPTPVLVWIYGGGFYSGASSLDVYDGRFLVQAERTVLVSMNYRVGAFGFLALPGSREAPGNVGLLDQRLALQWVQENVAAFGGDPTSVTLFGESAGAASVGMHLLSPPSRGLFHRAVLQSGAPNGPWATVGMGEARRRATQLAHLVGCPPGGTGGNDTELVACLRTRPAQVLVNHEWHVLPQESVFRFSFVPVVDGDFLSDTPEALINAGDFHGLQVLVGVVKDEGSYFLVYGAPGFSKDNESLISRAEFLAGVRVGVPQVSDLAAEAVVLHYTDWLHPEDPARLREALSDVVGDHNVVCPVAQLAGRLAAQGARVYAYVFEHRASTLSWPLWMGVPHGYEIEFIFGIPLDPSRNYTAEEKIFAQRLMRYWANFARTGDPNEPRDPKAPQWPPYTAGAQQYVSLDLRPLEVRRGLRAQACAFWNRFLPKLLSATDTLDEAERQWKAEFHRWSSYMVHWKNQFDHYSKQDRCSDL
Sequence of bovine serum albumin (BSA) (P02769 25-607): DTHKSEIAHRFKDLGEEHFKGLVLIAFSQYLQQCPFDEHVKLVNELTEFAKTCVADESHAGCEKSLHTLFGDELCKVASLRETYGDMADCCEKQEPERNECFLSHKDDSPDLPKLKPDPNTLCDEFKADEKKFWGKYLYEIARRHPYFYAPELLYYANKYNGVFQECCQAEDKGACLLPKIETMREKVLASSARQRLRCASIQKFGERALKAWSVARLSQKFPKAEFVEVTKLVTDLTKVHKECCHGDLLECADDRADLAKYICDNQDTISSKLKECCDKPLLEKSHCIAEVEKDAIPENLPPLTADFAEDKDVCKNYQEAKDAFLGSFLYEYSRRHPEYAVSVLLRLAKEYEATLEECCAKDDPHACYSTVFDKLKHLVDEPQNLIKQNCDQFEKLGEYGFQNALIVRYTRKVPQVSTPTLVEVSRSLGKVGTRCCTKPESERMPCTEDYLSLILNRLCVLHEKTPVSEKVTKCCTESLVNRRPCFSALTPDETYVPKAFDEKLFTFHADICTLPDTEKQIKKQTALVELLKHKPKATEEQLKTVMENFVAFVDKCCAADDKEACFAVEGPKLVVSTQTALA

SMILES | Inhibition (%) Protein Denaturation [1] [%] | Iron-Reducing Power (IRP) [2] [µg/mL] | inhibition at 1000 µg/mL [3] [%] | Total Antioxidant Capacity (TAC) [4] [mg Gallic Acid/g] | IC50 [5] [µM] | Inhibition (%) α-Glucosidase [6] [%] | Inhibition (%) α-Amylase [7] [%] | Inhibition (%) Proteinase [8] [%] | ABTS (%) inhibition [9] [%]
Cc1c(C=Nc2[nH]nc(Nc3ccccc3)c2C(=O)Nc2ccc(Cl)cc2)c(=O)n(-c2ccccc2)n1C [7c] | 15.38 ± 0.02 | 19.65 ± 0.04 | 24.11 ± 0.01 | 29.96 ± 0.11 | 40.72 ± 0.02 | 15.41 ± 0.03 | 17.91 ± 0.03 | 13.38 ± 0.02 | 43.27 ± 0.03
COc1ccc(Nc2n[nH]c(N=Cc3c(C)n(C)n(-c4ccccc4)c3=O)c2C(=O)Nc2ccc(C)cc2)cc1 [7e] | 8.05 ± 0.01 | 10.29 ± 0.02 | 12.62 ± 0.01 | 15.68 ± 0.06 | 51.98 ± 0.03 | 8.07 ± 0.02 | 9.38 ± 0.02 | 4.81 ± 0.01 | 22.65 ± 0.01
COc1ccc(Nc2n[nH]c(N=Cc3c(C)nn(-c4ccccc4)c3Cl)c2C(=O)Nc2ccccc2)cc1 [6d] | 15.62 ± 0.02 | 19.95 ± 0.04 | 24.48 ± 0.01 | 30.42 ± 0.11 | 40.11 ± 0.02 | 15.64 ± 0.03 | 18.19 ± 0.03 | 13.58 ± 0.02 | 43.93 ± 0.03
Cc1ccc(NC(=O)c2c(Nc3ccccc3)n[nH]c2/N=C/c2ccc(N3CCCCC3)cc2)cc1 [5b] | 7.83 ± 0.01 | 10.01 ± 0.02 | 12.28 ± 0.01 | 15.26 ± 0.06 | 59.8 ± 0.03 | 7.85 ± 0.01 | 9.12 ± 0.01 | 6.81 ± 0.01 | 22.03 ± 0.01
O=C1O[C@H]([C@@H](O)CO)C(O)=C1O [Ascorbic Acid, reference compound] | – | 71.85 ± 0.05 | – | 79.10 ± 0.11 | 29.3 ± 0.01 | – | – | – | 41.25 ± 0.01
O=C(Nc1ccc(Cl)cc1)c1c(Nc2ccccc2)n[nH]c1/N=C/c1ccc(N2CCCCC2)cc1 [5c] | 15.41 ± 0.02 | 19.68 ± 0.04 | 24.15 ± 0.01 | 30.01 ± 0.11 | 42.86 ± 0.02 | 15.43 ± 0.03 | 17.94 ± 0.03 | 13.40 ± 0.02 | 43.34 ± 0.03
COc1ccc(Nc2n[nH]c(N=Cc3c(C)n(C)n(-c4ccccc4)c3=O)c2C(=O)Nc2ccccc2)cc1 [7d] | 15.59 ± 0.02 | 19.92 ± 0.04 | 24.44 ± 0.01 | 30.36 ± 0.11 | 40.53 ± 0.02 | 15.61 ± 0.03 | 18.16 ± 0.03 | 13.56 ± 0.02 | 43.85 ± 0.03
C[C@H]1O[C@H](O[C@H]2[C@H](O)[C@@H](O)[C@@H](O[C@H]3[C@H](O)[C@@H](O)C(O)O[C@@H]3CO)O[C@@H]2CO)[C@H](O)[C@@H](O)[C@@H]1N[C@H]1C=C(CO)[C@@H](O)[C@H](O)[C@H]1O (stereo partly drawn) [Acarbose, reference compound] | – | – | – | – | – | 53.94 ± 0.01 | 76.58 ± 0.01 | – | –
COc1ccc(Nc2n[nH]c(N=Cc3c(C)nn(-c4ccccc4)c3Cl)c2C(=O)Nc2ccc(C)cc2)cc1 [6e] | 15.67 ± 0.02 | 20.02 ± 0.04 | 24.56 ± 0.01 | 30.52 ± 0.11 | 38.94 ± 0.02 | 15.69 ± 0.03 | 18.25 ± 0.03 | 13.63 ± 0.02 | 44.08 ± 0.03
Cc1nn(-c2ccccc2)c(Cl)c1C=Nc1[nH]nc(Nc2ccccc2)c1C(=O)Nc1ccc(Cl)cc1 [6c] | 17.97 ± 0.02 | 22.95 ± 0.05 | 28.16 ± 0.02 | 34.99 ± 0.13 | 34.58 ± 0.02 | 17.99 ± 0.03 | 20.92 ± 0.03 | 15.62 ± 0.02 | 50.54 ± 0.03
COc1ccc(Nc2n[nH]c(N=Cc3c(C)nn(-c4ccccc4)c3Cl)c2C(=O)Nc2ccc(Cl)cc2)cc1 [6f] | 15.64 ± 0.02 | 19.98 ± 0.04 | 24.52 ± 0.01 | 30.47 ± 0.11 | 37.6 ± 0.02 | 15.67 ± 0.03 | 18.22 ± 0.03 | 13.60 ± 0.02 | 44.00 ± 0.03
Cc1ccc(NC(=O)c2c(Nc3ccccc3)n[nH]c2N=Cc2c(C)nn(-c3ccccc3)c2Cl)cc1 [6b] | 17.94 ± 0.02 | 22.91 ± 0.04 | 28.11 ± 0.02 | 34.93 ± 0.13 | 36.02 ± 0.02 | 17.96 ± 0.03 | 20.89 ± 0.03 | 15.60 ± 0.02 | 50.45 ± 0.03
Cc1nn(-c2ccccc2)c(Cl)c1C=Nc1[nH]nc(Nc2ccccc2)c1C(=O)Nc1ccccc1 [6a] | 15.33 ± 0.02 | 19.58 ± 0.04 | 24.03 ± 0.01 | 29.86 ± 0.11 | 43.35 ± 0.02 | 15.35 ± 0.03 | 17.85 ± 0.03 | 13.33 ± 0.02 | 43.12 ± 0.03
Cc1ccc(NC(=O)c2c(Nc3ccccc3)n[nH]c2N=Cc2c(C)n(C)n(-c3ccccc3)c2=O)cc1 [7b] | 15.36 ± 0.02 | 19.62 ± 0.04 | 24.07 ± 0.01 | 29.91 ± 0.11 | 42.45 ± 0.02 | 15.38 ± 0.03 | 17.88 ± 0.03 | 13.35 ± 0.02 | 43.19 ± 0.03
